Assay results reported in ChEMBL document CHEMBL5360532, “Current scenario of quinolone hybrids with potential antibacterial activity against ESKAPE pathogens” (Eur J Med Chem, 2023).
In brackets after ≈: the same amount, converted by molar mass.

Experiments:
Format in all cases: functional
Enterococcus faecalis = test: Antibacterial activity Enterococcus faecalis assessed as bacterial growth inhibition measured after 24 hrs by broth microdilution assay
Pseudomonas aeruginosa [1] = test: Antibacterial activity Pseudomonas aeruginosa assessed as bacterial growth inhibition measured after 24 hrs by broth microdilution assay
Escherichia coli [2] = test: Antibacterial activity Escherichia coli assessed as bacterial growth inhibition measured after 24 hrs by broth microdilution assay
Staphylococcus aureus [3] = test: Antibacterial activity Staphylococcus aureus assessed as bacterial growth inhibition measured after 24 hrs by broth microdilution assay
Pseudomonas aeruginosa [4] = test: Antibacterial activity against clinical isolate multi drug resistant Pseudomonas aeruginosa PA259-96918 assessed as bacterial growth inhibition measured after 18 hrs by broth microdilution assay
Acinetobacter baumannii [5] = test: Antibacterial activity against clinical isolate multi drug resistant Acinetobacter baumannii AB027 assessed as bacterial growth inhibition measured after 18 hrs by broth microdilution assay
Pseudomonas aeruginosa [6] = test: Antibacterial activity against clinical isolate multi drug resistant Pseudomonas aeruginosa PA264-104354 assessed as bacterial growth inhibition measured after 18 hrs by broth microdilution assay
Enterobacter cloacae [7] = test: Antibacterial activity against multi drug resistant Enterobacter cloacae clinical isolate 121187 assessed as bacterial growth inhibition measured after 18 hrs by broth microdilution assay
Acinetobacter baumannii [8] = test: Antibacterial activity against multi drug resistant Acinetobacter baumannii clinical isolate 92247 assessed as bacterial growth inhibition measured after 18 hrs by broth microdilution assay
Escherichia coli [9] = test: Antibacterial activity against multi drug resistant Escherichia coli clinical isolate 94393 assessed as bacterial growth inhibition measured after 18 hrs by broth microdilution assay
Acinetobacter baumannii [10] = test: Antibacterial activity against clinical isolate multi drug resistant Acinetobacter baumannii LAC-4 assessed as bacterial growth inhibition measured after 18 hrs by broth microdilution assay
Klebsiella pneumoniae [11] = test: Antibacterial activity against multi drug resistant Klebsiella pneumoniae clinical isolate 116381 assessed as bacterial growth inhibition measured after 18 hrs by broth microdilution assay
Pseudomonas aeruginosa [12] = test: Antibacterial activity against multi drug resistant Pseudomonas aeruginosa clinical isolate 100036 assessed as bacterial growth inhibition measured after 18 hrs by broth microdilution assay
Acinetobacter baumannii [13] = test: Antibacterial activity against clinical isolate multi drug resistant Acinetobacter baumannii AB031 assessed as bacterial growth inhibition measured after 18 hrs by broth microdilution assay
Enterobacter cloacae [14] = test: Antibacterial activity against multi drug resistant Enterobacter cloacae clinical isolate 118564 assessed as bacterial growth inhibition measured after 18 hrs by broth microdilution assay
Pseudomonas aeruginosa [15] = test: Antibacterial activity against clinical isolate multi drug resistant Pseudomonas aeruginosa PA260-97103 assessed as bacterial growth inhibition measured after 18 hrs by broth microdilution assay
Escherichia coli [16] = test: Antibacterial activity against multi drug resistant Escherichia coli clinical isolate 107115 assessed as bacterial growth inhibition measured after 18 hrs by broth microdilution assay
[17] = system: Mycobacterium tuberculosis; test: Antimycobacterial activity against multidrug Mycobacterium tuberculosis assessed as bacterial growth inhibition by LJ slant assay
Pseudomonas aeruginosa [18] = test: Antibacterial activity against clinical isolate multi drug resistant Pseudomonas aeruginosa PA262-101856 assessed as bacterial growth inhibition measured after 18 hrs by broth microdilution assay
Escherichia coli [19] = test: Antibacterial activity against multi drug resistant Escherichia coli clinical isolate 94474 assessed as bacterial growth inhibition measured after 18 hrs by broth microdilution assay
[20] = system: Mycobacterium tuberculosis; test: Antimycobacterial activity against extensive drug Mycobacterium tuberculosis assessed as bacterial growth inhibition by LJ slant assay
Klebsiella pneumoniae [21] = test: Antibacterial activity against multi drug resistant Klebsiella pneumoniae clinical isolate 113254 assessed as bacterial growth inhibition measured after 18 hrs by broth microdilution assay
Enterobacter cloacae [22] = test: Antibacterial activity against multi drug resistant Enterobacter cloacae clinical isolate 117029 assessed as bacterial growth inhibition measured after 18 hrs by broth microdilution assay
Klebsiella pneumoniae [23] = test: Antibacterial activity against multi drug resistant Klebsiella pneumoniae clinical isolate 113250 assessed as bacterial growth inhibition measured after 18 hrs by broth microdilution assay
Staphylococcus aureus [24] = test: Antibacterial activity Staphylococcus aureus ATCC 25923 assessed as bacterial growth inhibition by broth microdilution assay
Escherichia coli [25] = test: Antibacterial activity Escherichia coli ATCC 25922 assessed as bacterial growth inhibition by broth microdilution assay
Pseudomonas aeruginosa [26] = test: Antibacterial activity against Pseudomonas aeruginosa assessed as bacterial growth inhibition by two fold serial dilution assay
Staphylococcus aureus [27] = test: Antibacterial activity against methicillin resistant Staphylococcus aureus assessed as bacterial growth inhibition by two fold serial dilution assay

In the case of `C[C@H](NC(=O)c1cc(=O)[nH]c2ccccc12)C(=O)O`, the MIC (Enterococcus faecalis) is reported as 620 µg/mL (≈ 2380 µM), the MIC (Pseudomonas aeruginosa [1]) is reported as 620 µg/mL (≈ 2380 µM) and the MIC (Escherichia coli [2]) is reported as 620 µg/mL (≈ 2380 µM). It also gave an MIC (Staphylococcus aureus [3]) of 620 µg/mL (≈ 2380 µM).

In the case of `NC[C@@H]1O[C@@H](O[C@@H]2[C@@H](OCCCCCCCN3CCN(c4cc5c(cc4F)c(=O)c(C(=O)O)cn5C4CC4)CC3)[C@H](O[C@@H]3O[C@@H](CO)[C@H](O)[C@@H](N)[C@@H]3O)[C@@H](N)C[C@H]2N)[C@@H](N)C[C@H]1O`, the MIC (Pseudomonas aeruginosa [4]) is reported as at least 16 µg/mL, the MIC (Acinetobacter baumannii [5]) is reported as at least 16 µg/mL and the MIC (Pseudomonas aeruginosa [6]) is reported as at least 16 µg/mL. It also gave an MIC (Enterobacter cloacae [7]) of at least 16 µg/mL, an MIC (Acinetobacter baumannii [8]) of at least 16 µg/mL and an MIC (Escherichia coli [9]) of at least 16 µg/mL. For the same compound, the MIC (Acinetobacter baumannii [10]) was at least 16 µg/mL, the MIC (Klebsiella pneumoniae [11]) was at least 16 µg/mL and the MIC (Pseudomonas aeruginosa [12]) was at least 16 µg/mL. For the same compound, the MIC (Acinetobacter baumannii [13]) was at least 16 µg/mL, the MIC (Enterobacter cloacae [14]) was at least 16 µg/mL and the MIC (Pseudomonas aeruginosa [15]) was at least 16 µg/mL. It also gave an MIC (Escherichia coli [16]) of at least 16 µg/mL, an MIC [17] of at least 16 µg/mL and an MIC (Pseudomonas aeruginosa [18]) of at least 16 µg/mL. For the same compound, the MIC (Escherichia coli [19]) was at least 16 µg/mL, the MIC [20] was at least 16 µg/mL and the MIC (Klebsiella pneumoniae [21]) was at least 16 µg/mL. For the same compound, the MIC (Enterobacter cloacae [22]) was at least 16 µg/mL and the MIC (Klebsiella pneumoniae [23]) was at least 16 µg/mL.

`C[C@@H](NC(=O)C(Cl)Cl)C(=O)N1CCN(c2cc3c(cc2F)c(=O)c(C(=O)O)cn3C2CC2)CC1` showed an MIC (Staphylococcus aureus [24]) of 0.167 µg/mL (≈ 0.325 µM) and an MIC (Escherichia coli [25]) of 0.082 µg/mL (≈ 0.16 µM).

With `COc1c(N2CCN(C(=O)CN3CCN(CC(=O)O)CCN(CC(=O)O)CCN(CC(=O)O)CC3)C(C)C2)c(F)cc2c(=O)c(C(=O)O)cn(C3CC3)c12` (stereo not drawn) the MIC (Pseudomonas aeruginosa [26]) was 3.12 µg/mL (≈ 4.1 µM) and the MIC (Staphylococcus aureus [27]) was 1.56 µg/mL (≈ 2.05 µM).
